Consider six compounds from patent publication US10729135B2, “Methods of controlling pests using terpendoles” (priority 2017, dated 2020).

The data set relates to green peach aphids (Myzus persicae). In words: LC50 biological efficacy assay on green peach aphids, aerosolized dilutions on infested radish leaves. The format is in vivo. Conditions: for LC50: concentration for 50% control over 24-48 hours, infested radish leaves, 500 μl aerosolized dilution; for control of green peach aphids (in words): summary of Table 1. The procedure:
Biological efficacy assays utilizing terpendoles were conducted on green peach aphids (Myzus persicae). Specifically, terpendole A, terpendole C, terpendole J, terpendole K, terpendole N, terpendole O and terpendole P were each separately applied in serial dilutions to determine the concentration at which 50% control of green peach aphids occurred over a period of 24-48 hours (“LC50”). Radish leaves infested with green peach aphids were treated, top and bottom, with a total of 500 μl of an aerosolized terpendole dilution. Treated, aphid infested leaves were held in greenhouse conditions and evaluated for efficacy at 24 and 48 h.

Each structure is given as a SMILES string.

Broadly, the LC50 is the concentration lethal to half of the exposed cells or organisms. Lower therefore signals a more lethal substance. For the compound `CC(C)=C[C@@H]1O[C@H]2[C@@H](O[C@@H]3CC[C@]4(C)[C@](O)(CC[C@H](CC5(O)C(=O)Nc6cccc(CC7OC7(C)C)c65)[C@@]4(C)O)[C@@]34O[C@@H]24)C(C)(C)O1` (stereo partly drawn) [Terpendole N, terpendole N], the LC50 is 4 ppm and the “control of green peach aphids (in words)” value is listed as “effectively controlled”.

With `CC(C)=CCc1ccc2c3c([nH]c2c1)[C@@]1(C)[C@@H](CC[C@@]2(O)[C@@]45O[C@@H]4[C@@H]4O[C@H](C6OC6(C)C)OC(C)(C)[C@H]4O[C@H]5CC[C@@]21C)C3` (stereo partly drawn) [Terpendole P, terpendole P], the LC50 was 67 ppm and the “control of green peach aphids (in words)” value was “effectively controlled”.

For `CC(C)=C[C@H]1O[C@H]2[C@H]3O[C@@]34C(=CC[C@@]3(C)[C@@]4(O)CC[C@H]4Cc5c([nH]c6ccccc56)[C@@]43C)O[C@@H]2C(C)(C)O1` [Terpendole K, terpendole K], the LC50 was 44 ppm and the “control of green peach aphids (in words)” value is reported as “effectively controlled”.

Regarding `CC(C)=CCc1cccc2[nH]c3c(c12)C[C@@H]1CC[C@@]2(O)[C@@]45O[C@@H]4[C@@H]4O[C@H](C6OC6(C)C)OC(C)(C)[C@H]4O[C@H]5CC[C@]2(C)[C@@]31C` (stereo partly drawn) [Terpendole O, terpendole O], the LC50 is 105 ppm and the “control of green peach aphids (in words)” value was “effectively controlled”.

`CC(C)=CCOC(C)(C)[C@H]1O[C@H]2CC[C@@]3(C)[C@@](O)(CC[C@H]4Cc5c([nH]c6ccccc56)[C@@]43C)[C@]23O[C@@H]3[C@@H]1O` [Terpendole J, terpendole J]: the LC50 was 5,183 ppm and the “control of green peach aphids (in words)” value was “effectively controlled”.

Regarding `CC1(C)OC1[C@H]1O[C@H]2[C@H]3O[C@@]34[C@H](CC[C@@]3(C)[C@@]4(O)CC[C@H]4Cc5c([nH]c6ccccc56)[C@@]43C)O[C@@H]2C(C)(C)O1` (stereo partly drawn) [Terpendole A, terpendole A], the LC50 is 7 ppm and the “control of green peach aphids (in words)” value was “effectively controlled”.
